Measurements published in US20110045101A1, “FUNGICIDAL SUBSTITUTED AZOLES” (E.I. Du Pont De Nemours and Company, priority 2009, published 2011).
Marks after values point to notes of the source that are not given here.

Columns and labels:
Type in all cases: in vivo
Settings in all cases: 100 = 100% disease control
[1] = system: Erysiphe graminis f. sp. tritici; assay: Test J: wheat powdery mildew on wheat seedlings, sprayed the day before inoculation, visual disease rating
Outline: (§1)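 200 ppm run-off spray (500 g/ha equivalent); * = 40 ppm. Vehicle: acetone/water 50/50, 250 ppm Trem® 014.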

[2] = system: Septoria nodorum; assay: Test F: wheat glume blotch on wheat seedlings, sprayed the day before inoculation, visual disease rating
Outline: as §1

[3] = system: Puccinia recondita f. sp. tritici; assay: Test H: wheat leaf rust, test suspension sprayed after inoculation of wheat seedlings, visual disease rating
Outline: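 Wheat seedlings inoculated with P. recondita spores, held 24 h saturated at 20 °C, then 2 days in growth chamber at 20 °C; compound suspension (acetone/water with Trem 014) sprayed to run-off afterwards. Rated visually; 200 ppm (≈500 g/ha) unless marked *, which denotes 40 ppm.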

[4] = system: Botrytis cinerea; assay: Test C: tomato Botrytis on tomato seedlings, sprayed the day before inoculation, visual disease rating
Outline: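 Tomato seedlings were sprayed until run-off with test suspensions in acetone/water (50/50) carrying 250 ppm polyhydric alcohol ester surfactant. Standard dose was 200 ppm, with 40 ppm for marked entries.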

[5] = system: Alternaria solani; assay: Test D: tomato early blight, sprayed the day before inoculation, visual disease rating
Outline: as §1

[6] = system: Septoria tritici; assay: Test G: wheat leaf blotch on wheat seedlings, sprayed the day before inoculation, visual disease rating
Outline: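 Wheat seedlings were sprayed to run-off with test suspension (acetone/water plus surfactant), generally 200 ppm (≈500 g/ha), or 40 ppm where marked. Septoria tritici spores were inoculated the next day; plants were held 48 h at 24°C in saturated atmosphere, then 19 days at 20°C before visual disease rating.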

[7] = system: Puccinia recondita f. sp. tritici; assay: Test I: wheat leaf rust on wheat seedlings, sprayed the day before inoculation, visual disease rating
Outline: as §1

[8] = 200 ppm, 0 = no control relative to controls

COc1cc(F)c(-c2c(Cl)nc(Cl)n2-c2ccc(OC(F)(F)F)cc2)c(F)c1 [compound 568]
Test J disease control rating [1, 8]: 100%
Test F disease control rating [2, 8]: 98%
Test H disease control rating [3, 8]: 72%
Test C disease control rating [4, 8]: 99%
Test D disease control rating [5, 8]: 100%
Test G disease control rating [6, 8]: 94%
Test I disease control rating [7, 8]: 100%

COc1cc(F)c(-c2c(Cl)nc(C)n2-c2ccc(OC(F)F)cc2)c(F)c1 [compound 569]
Test J disease control rating [1, 8]: 99%
Test F disease control rating [2, 8]: 100%
Test H disease control rating [3, 8]: 84%
Test C disease control rating [4, 8]: 100%
Test D disease control rating [5, 8]: 100%
Test G disease control rating [6, 8]: 97%
Test I disease control rating [7, 8]: 100%

COc1cc(F)c(-c2c(Cl)nc(Cl)n2-c2ccc(C)c(C#N)c2)c(F)c1 [compound 572]
Test J disease control rating ([1]; 40 ppm (marked *)): 71* %
Test F disease control rating ([2]; 40 ppm (marked *)): 92* %
Test H disease control rating ([3]; 40 ppm (marked *)): 0* %
Test C disease control rating ([4]; 40 ppm (marked *)): 100* %
Test D disease control rating ([5]; 40 ppm (marked *)): 99* %
Test G disease control rating ([6]; 40 ppm (marked *)): 95* %
Test I disease control rating ([7]; 40 ppm (marked *)): 99* %

Cc1nc(Cl)n(-c2ccc(F)cc2Cl)c1-c1ccc(Cl)c(F)c1 [compound 573]
Test J disease control rating [1, 8]: 99%
Test F disease control rating [2, 8]: 0%
Test H disease control rating [3, 8]: 22%
Test C disease control rating [4, 8]: 100%
Test D disease control rating [5, 8]: 100%
Test G disease control rating [6, 8]: 96%
Test I disease control rating [7, 8]: 100%

COc1cc(Cl)c(-c2c(Cl)nc(Br)n2-c2ccc(Cl)c(F)c2)c(Cl)c1 [compound 574]
Test J disease control rating [1, 8]: 97%
Test F disease control rating [2, 8]: 60%
Test H disease control rating [3, 8]: 0%
Test C disease control rating [4, 8]: 100%
Test D disease control rating [5, 8]: 0%
Test G disease control rating [6, 8]: 100%
Test I disease control rating [7, 8]: 98%

COc1cc(C#N)cc(F)c1-c1c(Cl)nc(Cl)n1-c1ccc(Cl)c(F)c1 [compound 575]
Test J disease control rating [1, 8]: 72%
Test F disease control rating [2, 8]: 0%
Test H disease control rating [3, 8]: 0%
Test C disease control rating [4, 8]: 96%
Test D disease control rating [5, 8]: 0%
Test G disease control rating [6, 8]: 73%
Test I disease control rating [7, 8]: 76%

COc1cc(F)c(-c2c(Cl)nc(Cl)n2-c2cccnc2Br)c(F)c1 [compound 576]
Test J disease control rating [1, 8]: 99%
Test F disease control rating [2, 8]: 100%
Test H disease control rating [3, 8]: 100%
Test C disease control rating [4, 8]: 100%
Test D disease control rating [5, 8]: 99%
Test G disease control rating [6, 8]: 100%
Test I disease control rating [7, 8]: 100%

Cc1ccc(-n2c(Cl)nc(Cl)c2-c2c(F)cccc2F)nc1 [compound 577]
Test J disease control rating [1, 8]: 100%
Test F disease control rating [2, 8]: 87%
Test H disease control rating [3, 8]: 97%
Test C disease control rating [4, 8]: 100%
Test D disease control rating [5, 8]: 100%
Test G disease control rating [6, 8]: 100%
Test I disease control rating [7, 8]: 100%

COc1cc(F)c(-n2c(Cl)nc(CCl)c2-c2ccc(C)cc2)c(F)c1 [compound 581]
Test J disease control rating ([1]; 40 ppm (marked *)): 21* %
Test F disease control rating ([2]; 40 ppm (marked *)): 0* %
Test H disease control rating ([3]; 40 ppm (marked *)): 84* %
Test C disease control rating ([4]; 40 ppm (marked *)): 99* %
Test D disease control rating ([5]; 40 ppm (marked *)): 33* %
Test G disease control rating ([6]; 40 ppm (marked *)): 96* %
Test I disease control rating ([7]; 40 ppm (marked *)): 98* %

COc1ccc(F)c(-c2c(Cl)nc(C)n2-c2ccc(Br)cc2)c1F [compound 582]
Test J disease control rating [1, 8]: 100%
Test F disease control rating [2, 8]: 99%
Test H disease control rating [3, 8]: 15%
Test C disease control rating [4, 8]: 100%
Test D disease control rating [5, 8]: 100%
Test G disease control rating [6, 8]: 97%
Test I disease control rating [7, 8]: 99%

Fc1cc(F)c(-c2c(Cl)ncn2-c2cccc(OC(F)F)c2)c(F)c1 [compound 584]
Test J disease control rating [1, 8]: 99%
Test F disease control rating [2, 8]: 0%
Test H disease control rating [3, 8]: 0%
Test C disease control rating [4, 8]: 99%
Test D disease control rating [5, 8]: 99%
Test G disease control rating [6, 8]: 98%
Test I disease control rating [7, 8]: 100%

Fc1cc(F)c(-c2c(Cl)ncn2-c2ccc(OC(F)F)cc2)c(F)c1 [compound 585]
Test J disease control rating [1, 8]: 99%
Test F disease control rating [2, 8]: 0%
Test H disease control rating [3, 8]: 0%
Test C disease control rating [4, 8]: 100%
Test D disease control rating [5, 8]: 99%
Test G disease control rating [6, 8]: 100%
Test I disease control rating [7, 8]: 100%

Fc1cc(F)c(-c2c(Cl)ncn2-c2cccc(OC(F)(F)F)c2)c(F)c1 [compound 586]
Test J disease control rating [1, 8]: 21%
Test F disease control rating [2, 8]: 0%
Test H disease control rating [3, 8]: 0%
Test C disease control rating [4, 8]: 0%
Test D disease control rating [5, 8]: 0%
Test G disease control rating [6, 8]: 3%
Test I disease control rating [7, 8]: 0%

Fc1cc(F)c(-c2c(Cl)ncn2-c2ccc(OC(F)(F)F)cc2)c(F)c1 [compound 587]
Test J disease control rating [1, 8]: 97%
Test F disease control rating [2, 8]: 0%
Test H disease control rating [3, 8]: 7%
Test C disease control rating [4, 8]: 25%
Test D disease control rating [5, 8]: 80%
Test G disease control rating [6, 8]: 97%
Test I disease control rating [7, 8]: 0%

COc1cc(F)c(-c2c(Cl)nc(C)n2-c2cccc(OC(F)F)c2)c(F)c1 [compound 588]
Test J disease control rating [1, 8]: 100%
Test F disease control rating [2, 8]: 100%
Test H disease control rating [3, 8]: 100%
Test C disease control rating [4, 8]: 100%
Test D disease control rating [5, 8]: 100%
Test G disease control rating [6, 8]: 97%
Test I disease control rating [7, 8]: 100%

COc1cc(F)c(-c2c(Cl)nc(C)n2-c2cccc(OC(F)(F)F)c2)c(F)c1 [compound 589]
Test J disease control rating [1, 8]: 100%
Test F disease control rating [2, 8]: 98%
Test H disease control rating [3, 8]: 97%
Test C disease control rating [4, 8]: 100%
Test D disease control rating [5, 8]: 99%
Test G disease control rating [6, 8]: 98%
Test I disease control rating [7, 8]: 100%

COc1ccc(F)c(-c2c(Cl)nc(C)n2-c2ccc(C)c(F)c2)c1F [compound 590]
Test J disease control rating ([1]; 40 ppm (marked *)): 100* %
Test F disease control rating ([2]; 40 ppm (marked *)): 94* %
Test H disease control rating ([3]; 40 ppm (marked *)): 7* %
Test C disease control rating ([4]; 40 ppm (marked *)): 100* %
Test D disease control rating ([5]; 40 ppm (marked *)): 100* %
Test G disease control rating ([6]; 40 ppm (marked *)): 96* %
Test I disease control rating ([7]; 40 ppm (marked *)): 100* %

Fc1cccc(F)c1-c1c(Cl)nc(Cl)n1-c1ccccc1 [compound 591]
Test J disease control rating [1, 8]: 98%
Test F disease control rating [2, 8]: 0%
Test H disease control rating [3, 8]: 96%
Test C disease control rating [4, 8]: 100%
Test D disease control rating [5, 8]: 100%
Test G disease control rating [6, 8]: 97%
Test I disease control rating [7, 8]: 98%

Fc1cccc(F)c1-c1c(Cl)nc(Cl)n1-c1ccc(Cl)nc1 [compound 592]
Test J disease control rating [1, 8]: 100%
Test F disease control rating [2, 8]: 100%
Test H disease control rating [3, 8]: 100%
Test C disease control rating [4, 8]: 100%
Test D disease control rating [5, 8]: 100%
Test G disease control rating [6, 8]: 96%
Test I disease control rating [7, 8]: 100%

Fc1cc(-n2c(Cl)nc(Cl)c2-c2c(F)cncc2F)ccc1Cl [compound 593]
Test J disease control rating [1, 8]: 100%
Test F disease control rating [2, 8]: 99%
Test H disease control rating [3, 8]: 99%
Test C disease control rating [4, 8]: 100%
Test D disease control rating [5, 8]: 100%
Test G disease control rating [6, 8]: 96%
Test I disease control rating [7, 8]: 100%

Fc1cc(-n2cnc(Cl)c2-c2c(F)cncc2F)ccc1Cl [compound 594]
Test J disease control rating [1, 8]: 100%
Test F disease control rating [2, 8]: 0%
Test H disease control rating [3, 8]: 78%
Test C disease control rating [4, 8]: 100%
Test D disease control rating [5, 8]: 99%
Test G disease control rating [6, 8]: 94%
Test I disease control rating [7, 8]: 99%

COc1cc(F)c(-n2nnc(C)c2-c2ccc(Cl)cc2)c(F)c1 [compound 595]
Test J disease control rating [1, 8]: 98%
Test F disease control rating [2, 8]: 0%
Test H disease control rating [3, 8]: 22%
Test C disease control rating [4, 8]: 100%
Test D disease control rating [5, 8]: 80%
Test G disease control rating [6, 8]: 96%
Test I disease control rating [7, 8]: 74%

COc1ccc(F)c(-c2c(Cl)nc(Br)n2-c2ccc(C#N)cc2)c1F [compound 596]
Test J disease control rating [1, 8]: 97%
Test F disease control rating [2, 8]: 0%
Test H disease control rating [3, 8]: 0%
Test C disease control rating [4, 8]: 94%
Test D disease control rating [5, 8]: 73%
Test G disease control rating [6, 8]: 98%
Test I disease control rating [7, 8]: 74%

Fc1cc(F)c(-c2c(Cl)nc(Cl)n2-c2ccc(OC(F)F)cc2)c(F)c1 [compound 598]
Test J disease control rating [1, 8]: 100%
Test F disease control rating [2, 8]: 100%
Test H disease control rating [3, 8]: 99%
Test C disease control rating [4, 8]: 100%
Test D disease control rating [5, 8]: 100%
Test G disease control rating [6, 8]: 99%
Test I disease control rating [7, 8]: 100%

Fc1cc(F)c(-c2c(Cl)nc(Cl)n2-c2cccc(OC(F)(F)F)c2)c(F)c1 [compound 599]
Test J disease control rating [1, 8]: 0%
Test F disease control rating [2, 8]: 0%
Test H disease control rating [3, 8]: 0%
Test C disease control rating [4, 8]: 26%
Test D disease control rating [5, 8]: 0%
Test G disease control rating [6, 8]: 9%
Test I disease control rating [7, 8]: 0%
